# Read-outs that look alike come from different tables or passages of the source.
# Columns and labels:
# [1] = tested on: Pythium ultimum; test: Threshold concentration test for use of the compounds against Pythium ultimum (infested soil, garden peas); format: in vivo; set-up: key to root evaluation (1-4): 4: white roots without fungous necrosis; 3: white roots, minor fungous necrosis; 2: brown roots, already more pronounced fungous necrosis; 1: heavy fungous necrosis, roots rotted; conditions: for root evaluation (1-4): 3 weeks; for number of sound peas: 20 grains per dish, 3 weeks at 20-24° C.
# Method in brief: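 Garden pea seeds, 20 per dish, went straight into Pythium ultimum-infested soil into which 20% pulverulent formulations had been uniformly blended. Sound plants counted and roots rated 1–4 after three weeks of hothouse growth at 20–24 °C.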
# [2] = tested on: Botrytis cinerea; test: Prophylactic leaf treatment of tomato plants against Botrytis cinerea; format: in vivo; conditions: concentration of 0.025 of the active agent (unit not given)
# [3] = tested on: Tilletia caries; test: Treatment of oat seeds infested with Tilletia caries (spore germination); format: in vivo
# [4] = tested on: Fusarium avenaceum; test: Threshold concentration test in case of Fusarium avenaceum (infested soil, garden peas); format: in vivo; conditions: for number of sound peas: 20 grains per dish, 18 days at 20-24° C.; for root evaluation (1-4): 18 days
# Method in brief: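 Soil heavily infested with Fusarium avenaceum was mixed uniformly with a 20% powder formulation of active agent, then sown immediately with 20 garden pea seeds ('Wunder von Kelvedon') per dish. After 18 days in a greenhouse at 20° to 24° C., sound plants were counted and roots scored on a 1–4 scale.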
# [5] = tested on: Plasmopara viticola; test: Prophylactic leaf treatment of grapevines in the hothouse against Plasmopara viticola; format: in vivo
# Procedure: Effects of prophylactic leaf treatment of grapevines in the hothouse against Plasmopara viticola
# Young grapevine plants having from 5 to 8 leaves were sprayed dripping wet with the concentrations of active agents stated in the table below. After drying of the spray deposit the leaves were sprayed with an aqueous suspension of sporangia of the fungus (about 20,000 per ml); the spraying was applied to the bottom side of the leaves. The plants were then immediately incubated in a hothouse at a temperature of 22° to 24° C. and at maximum water saturation in the atmosphere. Beginning with the second day the humidity of the air was reduced for 3 to 4 days to normal level (30 to 70% saturation) and was then maintained for another day on the level of full saturation. Subsequently, the percentage portion of the fungus infested surface of each leaf was noted and the average per treatment was calculated in order to determine the fungicidal activity. This was done on the basis of the following formula: [formula]
# The active compounds were applied in the form of a 20% concentration spray powder.
# [6] = tested on: Venturia inaequalis; test: Prophylactic leaf treatment of apples in open field test against Venturia inaequalis; format: in vivo; conditions: 3 weeks
# [7] = tested on: Helminthosporium gram; conditions: about 5 weeks
# Procedure: Treatment of barley seeds infested with Helminthosporium gram
# After emergence, the plants were subjected to illumination for 12 hours per day. After about 5 weeks the infested plants were counted and the total number of plants for each test were also counted. The active agents tested were used as pulverulent compositions.
# [8] = tested on: Piricularia oryzae; format: in vivo; conditions: concentration of active agent 0.1 (percentages); 5 days
# [9] = tested on: Helminthosporium gramineum; test: Seed treatment in open field tests for infestation by Helminthosporium gramineum (barley); format: in vivo; conditions: summer barley; 50 g active agent/100 kg barley; about 3 months
# Procedure: Seed treatment in open field tests for infestation by Helminthosporium gramineum
# The active agents were used in the form of pulverulent compositions. After about 8 months in case of winter barley and after about 3 months in case of summer barley the infested plants were counted and the activity was calculated by the formula [formula]
# [10] = concentration of active agent 0.025 (unit not given)
# [11] = concentration of active agent 0.005 (in gram)
# [12] = concentration of active agent 0.025 (in gram)
Structure (SMILES),root evaluation (1-4) ([1]; 20 mg/l soil),number of sound peas ([1]; 20 mg/l soil),root evaluation (1-4) ([1]; 40 mg/l soil),number of sound peas ([1]; 40 mg/l soil),root evaluation (1-4) ([1]; 80 mg/l soil),number of sound peas ([1]; 80 mg/l soil),% activity [2] [%],% activity ([3]; 10 g active agent per 100 kg) [%],% activity ([3]; 20 g active agent per 100 kg) [%],% activity ([3]; 50 g active agent per 100 kg) [%],"% activity [5, 10] [%]",% activity ([7]; 50 g active agent per 100 kg) [%],also measured
"CCCS(=O)(=O)c1nnc(C(=O)NC)s1 [5-propylsulfonyl-1,3,4-thiadiazole-2-carboxylic acid-methylamide]",4,19,4,16,4,15,88,99.5,99.5,100,,,
"CCCCCCS(=O)(=O)c1nnc(C#N)s1 [5-hexylsulfonyl-1,3,4-thiadiazole-2-carbonitrile]",,,,,,,86,,,90,90,,number of sound peas ([4]; 25 mg/l soil): 19; root evaluation (1-4) ([4]; 25 mg/l soil): 4; number of sound peas ([4]; 50 mg/l soil): 19; root evaluation (1-4) ([4]; 50 mg/l soil): 4; number of sound peas ([4]; 100 mg/l soil): 19; root evaluation (1-4) ([4]; 100 mg/l soil): 4
"CCCS(=O)(=O)c1nnc(C(N)=O)s1 [5-propylsulfonyl-1,3,4-thiadiazole-2-carboxamide]",1,12,4,19,4,17,94,100,100,100,95,,% activity ([5]; concentration of active agent 0.005 (unit not given)): 89%
"CCCS(=O)(=O)c1nnc(C(=O)N2CCC2)s1 [5-propylsulfonyl-1,3,4-thiadiazole-2-carboxylic acid-N,N-trimethyleneamide]",1,6,4,19,4,18,87,,,100,,,number of sound peas ([4]; 25 mg/l soil): 11; root evaluation (1-4) ([4]; 25 mg/l soil): 2; number of sound peas ([4]; 50 mg/l soil): 17; root evaluation (1-4) ([4]; 50 mg/l soil): 3; number of sound peas ([4]; 100 mg/l soil): 17; root evaluation (1-4) ([4]; 100 mg/l soil): 3
"CC(C)NC(=O)c1nnc([S+](C)[O-])s1 (stereo not drawn) [5-methylsulfinyl-1,3,4-thiadiazole-2-carboxylic acid-isopropylamide]",4,19,4,19,4,20,,,100,100,90,100,"% activity [6, 11]: 71%; % activity [6, 12]: 90%; % activity ([7]; 20 g active agent per 100 kg): 96%; % activity [8]: 90%"
"CCCNC(=O)c1nnc(S(=O)(=O)CCC)s1 [5-propylsulfonyl-1,3,4-thiadiazole-2-carboxylic acid-propylamide]",1,10,4,16,4,16,80,99.5,99.7,100,93,,
"CCCCNC(=O)c1nnc([S+](C)[O-])s1 (stereo not drawn) [5-methylsulfinyl-1,3,4-thiadiazole-2-carboxylic acid-butylamide]",2,12,4,15,4,17,,99,99.8,100,93,100,"% activity [6, 11]: 86%; % activity [6, 12]: 99%; % activity ([7]; 10 g active agent per 100 kg): 67%; % activity ([7]; 20 g active agent per 100 kg): 97%; % activity [9]: 100%"
"CCC[S+]([O-])c1nnc(C(=O)N(C)C)s1 (stereo not drawn) [5-propylsulfinyl-1,3,4-thiadiazole-2-carboxylic acid-dimethylamide]",1,12,4,18,4,19,80,,100,100,,100,

# Source: patent publication US4281121A, “1,3,4-Thiadiazole-2-carboxylic acid derivatives, process for making the same and fungicidal and nematocidal compositions containing same” (Schering Aktiengesellschaft, priority 1978, dated 1981)
